Data as given in PMC7432833, “Unusual Occurrence of Two Bona-Fide CCA-Adding Enzymes in Dictyostelium discoideum” (International Journal of Molecular Sciences, 2020).
pKd: −log10 of the molar value.

Legend:
[1] = system: T1, CCA2 (tRNA nucleotidyltransferase 2, Q/N-rich) (Dictyostelium discoideum); experiment: EMSA; details: 6 mM Mg2+, EMSA: HEPES/KOH pH 7.6 (concentration not stated), 30 mM KCl, 6 mM MgCl2, 20 C, 10 min, 0.5 pmol tRNA, 0-5 uM enzyme, 5% native PAA gel, n=3
T1 sequence: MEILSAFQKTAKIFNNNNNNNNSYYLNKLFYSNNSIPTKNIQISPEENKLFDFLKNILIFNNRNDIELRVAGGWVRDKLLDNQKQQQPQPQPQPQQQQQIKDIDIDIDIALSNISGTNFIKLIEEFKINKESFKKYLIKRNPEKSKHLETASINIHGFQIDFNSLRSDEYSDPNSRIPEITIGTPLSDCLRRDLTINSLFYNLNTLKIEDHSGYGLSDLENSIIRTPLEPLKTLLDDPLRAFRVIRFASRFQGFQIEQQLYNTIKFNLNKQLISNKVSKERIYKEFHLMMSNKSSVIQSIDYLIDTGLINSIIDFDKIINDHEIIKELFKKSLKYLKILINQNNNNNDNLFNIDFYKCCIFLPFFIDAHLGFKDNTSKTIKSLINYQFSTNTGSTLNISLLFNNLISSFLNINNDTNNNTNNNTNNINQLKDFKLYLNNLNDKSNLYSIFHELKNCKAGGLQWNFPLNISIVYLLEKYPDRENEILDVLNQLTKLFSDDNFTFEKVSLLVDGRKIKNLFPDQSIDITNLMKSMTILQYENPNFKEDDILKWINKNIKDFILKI

[2] = target: T2, CCA2 (Dictyostelium discoideum, UniProt Q55BE1); experiment: nucleotide binding assay (supplement)
T2 construct: gene DDB_G0271378; full-length codon-optimized ORF, C-terminal His tag, pET28b(+), E. coli BL21(DE3) delta-cca; Q/N-rich
T2 sequence (Q55BE1 1-542): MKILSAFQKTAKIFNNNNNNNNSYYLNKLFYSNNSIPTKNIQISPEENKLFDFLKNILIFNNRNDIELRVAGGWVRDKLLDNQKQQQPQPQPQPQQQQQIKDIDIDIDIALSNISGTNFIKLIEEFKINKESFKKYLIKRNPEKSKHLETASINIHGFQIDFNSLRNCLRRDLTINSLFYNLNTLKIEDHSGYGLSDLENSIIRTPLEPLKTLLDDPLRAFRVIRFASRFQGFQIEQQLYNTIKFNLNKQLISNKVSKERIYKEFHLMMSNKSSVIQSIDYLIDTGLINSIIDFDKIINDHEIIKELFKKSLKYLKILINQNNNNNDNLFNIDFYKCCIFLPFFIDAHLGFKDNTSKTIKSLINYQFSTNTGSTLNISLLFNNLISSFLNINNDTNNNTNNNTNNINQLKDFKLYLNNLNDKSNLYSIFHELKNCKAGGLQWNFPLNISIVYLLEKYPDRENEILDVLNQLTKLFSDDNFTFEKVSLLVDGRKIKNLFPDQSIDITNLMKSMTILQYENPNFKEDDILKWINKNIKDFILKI

[3] = target: T3, CCA1 (Dictyostelium discoideum, UniProt Q54BQ2); experiment: nucleotide binding assay (supplement)
T3 construct: gene DDB_G0293504; full-length codon-optimized ORF, C-terminal His tag, pET28b(+), E. coli BL21(DE3) delta-cca
T3 sequence (Q54BQ2 1-558): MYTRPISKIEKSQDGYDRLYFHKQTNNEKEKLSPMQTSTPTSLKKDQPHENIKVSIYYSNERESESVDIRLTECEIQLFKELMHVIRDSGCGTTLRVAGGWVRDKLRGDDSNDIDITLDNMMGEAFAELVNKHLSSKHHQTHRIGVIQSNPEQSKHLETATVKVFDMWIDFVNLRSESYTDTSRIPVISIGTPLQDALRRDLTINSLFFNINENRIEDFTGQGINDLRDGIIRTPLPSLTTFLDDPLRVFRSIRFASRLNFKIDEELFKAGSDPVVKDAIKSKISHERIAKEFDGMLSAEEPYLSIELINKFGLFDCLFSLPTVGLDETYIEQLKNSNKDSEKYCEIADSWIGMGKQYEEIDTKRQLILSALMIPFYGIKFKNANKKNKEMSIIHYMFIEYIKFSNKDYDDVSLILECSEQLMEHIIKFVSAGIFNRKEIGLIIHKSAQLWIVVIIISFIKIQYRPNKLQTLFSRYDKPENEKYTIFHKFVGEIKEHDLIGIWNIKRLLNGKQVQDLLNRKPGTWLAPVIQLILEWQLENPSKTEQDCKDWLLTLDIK

Row | Molecule | pKd [1] | nucleotide binding assay (supplement) [2] | nucleotide binding assay (supplement) [3] | pKd ([1]; tRNA pool, native tRNA modifications (isolated from cells))
1 | tRNAPhe-CC in vitro transcript (yeast per Fig. 5 legend) | 5.64 |  |  | 
2 | Nc1ccn([C@@H]2O[C@H](COP(=O)(O)OP(=O)(O)OP(=O)(O)O)[C@@H](O)[C@H]2O)c(=O)n1 [CTP] |  | when incubated with CTP or ATP alone, both enzymes showed an almost identical binding behavior | when incubated with CTP or ATP alone, both enzymes showed an almost identical binding behavior | 
3 | total in vivo tRNA-CC pool |  |  |  | 5.77
4 | Nc1ncnc2c1ncn2[C@@H]1O[C@H](COP(=O)(O)OP(=O)(O)OP(=O)(O)O)[C@@H](O)[C@H]1O [ATP] |  | when incubated with CTP or ATP alone, both enzymes showed an almost identical binding behavior | when incubated with CTP or ATP alone, both enzymes showed an almost identical binding behavior | 
